Source: patent US20190134005A1 (BioMarin Pharmaceutical Inc., priority 2016, published 2019)
pIC50: −log10 of the molar value.

molecular target: T1, human CGT (Homo sapiens, UniProt Q16880); assay: CGT Enzyme Assay (Biological Example 2, RapidFire/MS/MS method with 0.01% Tween 80 added); type: biochemical; details: enzymatic assay, CHO/CGT lysate
T1 sequence (Q16880 21-541): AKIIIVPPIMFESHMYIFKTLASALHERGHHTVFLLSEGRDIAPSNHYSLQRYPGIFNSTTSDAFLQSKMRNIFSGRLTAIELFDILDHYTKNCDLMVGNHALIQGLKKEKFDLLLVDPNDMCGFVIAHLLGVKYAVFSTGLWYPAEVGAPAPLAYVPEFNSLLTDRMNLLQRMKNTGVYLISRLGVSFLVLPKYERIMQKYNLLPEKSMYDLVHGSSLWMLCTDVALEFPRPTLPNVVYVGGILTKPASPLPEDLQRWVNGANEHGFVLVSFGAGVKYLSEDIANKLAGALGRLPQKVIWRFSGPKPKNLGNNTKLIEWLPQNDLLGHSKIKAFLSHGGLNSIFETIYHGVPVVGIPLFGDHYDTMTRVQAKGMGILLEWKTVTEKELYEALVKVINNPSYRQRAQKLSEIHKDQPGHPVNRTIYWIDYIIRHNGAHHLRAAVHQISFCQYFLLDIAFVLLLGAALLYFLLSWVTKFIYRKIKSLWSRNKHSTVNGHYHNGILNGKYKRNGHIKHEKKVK
In short: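 Lysate of CHO cells transfected with full-length human CGT, 0.5% DMSO final, 0.01% Tween 80 added; reactions stopped with methanol:acetonitrile holding internal standard. C6-NBD-dihydro-galactosylceramide and C6-NBD-dihydro-ceramide measured by RapidFire/MS/MS (ESI negative), product peak area normalized to internal standard.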

Question: How did the pIC50 turn out when `CC[C@]1(C)[C@@H](c2cccc(C#N)c2)N(c2ccc(Cl)cc2)C(=O)N1c1ccc(Cl)cc1` [Example 34-2, 3-((4R,5R)-1,3-bis(4-chlorophenyl)-5-ethyl-5-methyl-2-oxoimidazolidin-4-yl)benzonitrile] was run?
Answer: Its pIC50 is 5.00 to 6.00.

Question: With `CC[C@@]1(C)[C@@H](c2cccc(C#N)c2)N(c2ccc(Cl)cc2)C(=O)N1c1ccc(Cl)cc1` [Example 34-3, 3-((4R,5S)-1,3-bis(4-chlorophenyl)-5-ethyl-5-methyl-2-oxoimidazolidin-4-yl)benzonitrile] as the compound, how does the pIC50 read?
Answer: The pIC50 was over 6.00.

Question: `CC[C@]1(C)[C@H](c2cccc(C#N)c2)N(c2ccc(Cl)cc2)C(=O)N1c1ccc(Cl)cc1` [Example 34-4, 3-((4S,5R)-1,3-bis(4-chlorophenyl)-5-ethyl-5-methyl-2-oxoimidazolidin-4-yl)benzonitrile] was tested. Which pIC50 did it give?
Answer: Its pIC50 is 4.52 to 5.00.

Question: How did the pIC50 turn out when `Cc1ccc(N2C(=O)N(c3ccc(C)cc3)C3(CCCC3)[C@H]2c2cccc(OC(F)(F)F)c2)cc1` [Example 35-1, (R)-1,3-di-p-tolyl-4-(3-(trifluoromethoxy)phenyl)-1,3-diazaspiro[4.4]nonan-2-one] was run?
Answer: Its pIC50 is 5.00 to 6.00.

Question: With `Cc1ccc(N2C(=O)N(c3ccc(C)cc3)C3(CCCC3)[C@@H]2c2cccc(OC(F)(F)F)c2)cc1` [Example 35-2, (S)-1,3-di-p-tolyl-4-(3-(trifluoromethoxy)phenyl)-1,3-diazaspiro[4.4]nonan-2-one] as the compound, how does the pIC50 read?
Answer: Its pIC50 is over 6.00.

Question: `N#Cc1ccc(N2C(=O)N(c3ccc(C#N)cc3)C3(COC3)[C@H]2c2cccc(OC(F)(F)F)c2)cc1` [Example 36-1] was tested. Which pIC50 did it give?
Answer: The pIC50 was 4.52 to 5.00.

Question: `N#Cc1ccc(N2C(=O)N(c3ccc(C#N)cc3)C3(COC3)[C@@H]2c2cccc(OC(F)(F)F)c2)cc1` [Example 36-2] was tested. Which pIC50 did it give?
Answer: Its pIC50 is over 6.00.

Question: How did the pIC50 turn out when `COC[C@@]1(C)[C@@H](c2cccc(OC(F)(F)F)c2)N(c2ccc(Cl)cc2)C(=O)N1c1ccc(Cl)cc1` [Example 37-1, (4R,5R)-1,3-bis(4-chlorophenyl)-4-(methoxymethyl)-4-methyl-5-(3-(trifluoromethoxy)phenyl)imidazolidin-2-one] was run?
Answer: The pIC50 was 5.00 to 6.00.

Question: How did the pIC50 turn out when `COC[C@]1(C)[C@H](c2cccc(OC(F)(F)F)c2)N(c2ccc(Cl)cc2)C(=O)N1c1ccc(Cl)cc1` [Example 37-2, (4S,5S)-1,3-bis(4-chlorophenyl)-4-(methoxymethyl)-4-methyl-5-(3-(trifluoromethoxy)phenyl)imidazolidin-2-one] was run?
Answer: Its pIC50 is over 6.00.

Question: With `COC[C@@]1(C)[C@@H](c2cccc(C#N)c2)N(c2ccc(Cl)cc2)C(=O)N1c1ccc(Cl)cc1` [Example 38-1, 3-((4R,5R)-1,3-bis(4-chlorophenyl)-5-(methoxymethyl)-5-methyl-2-oxoimidazolidin-4-yl)benzonitrile] as the compound, how does the pIC50 read?
Answer: Its pIC50 is 5.00 to 6.00.

Question: How did the pIC50 turn out when `COC[C@]1(C)[C@H](c2cccc(C#N)c2)N(c2ccc(Cl)cc2)C(=O)N1c1ccc(Cl)cc1` [Example 38-2, 3-((4S,5S)-1,3-bis(4-chlorophenyl)-5-(methoxymethyl)-5-methyl-2-oxoimidazolidin-4-yl)benzonitrile] was run?
Answer: Its pIC50 is over 6.00.

Question: How did the pIC50 turn out when `C[C@@]1(C(F)(F)F)[C@H](c2cccc(OC(F)(F)F)c2)N(c2ccc(C#N)cc2)C(=O)N1c1ccc(C#N)cc1` [Example 39-1, 4,4′-((4S,5S)-4-methyl-2-oxo-5-(3-(trifluoromethoxy)phenyl)-4-(trifluoromethyl)imidazolidine-1,3-diyl)dibenzonitrile] was run?
Answer: The pIC50 was over 6.00.

Question: How did the pIC50 turn out when `C[C@]1(C(F)(F)F)[C@@H](c2cccc(OC(F)(F)F)c2)N(c2ccc(C#N)cc2)C(=O)N1c1ccc(C#N)cc1` [Example 39-2, 4,4′-((4R,5R)-4-methyl-2-oxo-5-(3-(trifluoromethoxy)phenyl)-4-(trifluoromethyl)imidazolidine-1,3-diyl)dibenzonitrile] was run?
Answer: The pIC50 was 4.52 to 5.00.

Question: How did the pIC50 turn out when `CC1(C)[C@@H](c2cccc(OC(F)(F)F)c2)N(c2ccc(C#N)cc2)C(=O)N1c1ccc(Cl)cc1` [Example 40-1, (R)-4-(3-(4-chlorophenyl)-4,4-dimethyl-2-oxo-5-(3-(trifluoromethoxy)phenyl)imidazolidin-1-yl)benzonitrile] was run?
Answer: Its pIC50 is 4.52 to 5.00.

Question: `CC1(C)[C@H](c2cccc(OC(F)(F)F)c2)N(c2ccc(C#N)cc2)C(=O)N1c1ccc(Cl)cc1` [Example 40-2, (S)-4-(3-(4-chlorophenyl)-4,4-dimethyl-2-oxo-5-(3-(trifluoromethoxy)phenyl)imidazolidin-1-yl)benzonitrile] was tested. Which pIC50 did it give?
Answer: Its pIC50 is over 6.00.

Question: With `CC1(C)[C@@H](c2cccc(OC(F)(F)F)c2)N(c2ccc(Cl)cc2)C(=O)N1c1ccc(C#N)cc1` [Example 41-1, (R)-4-(3-(4-chlorophenyl)-5,5-dimethyl-2-oxo-4-(3-(trifluoromethoxy)phenyl)imidazolidin-1-yl)benzonitrile] as the compound, how does the pIC50 read?
Answer: The pIC50 was 4.52 to 5.00.

Question: How did the pIC50 turn out when `CC1(C)[C@H](c2cccc(OC(F)(F)F)c2)N(c2ccc(Cl)cc2)C(=O)N1c1ccc(C#N)cc1` [Example 41-2, (S)-4-(3-(4-chlorophenyl)-5,5-dimethyl-2-oxo-4-(3-(trifluoromethoxy)phenyl)imidazolidin-1-yl)benzonitrile] was run?
Answer: Its pIC50 is over 6.00.

Question: With `Cc1ccc(N2C(=O)N(c3ccc(C#N)cc3)C3(COC3)[C@H]2c2cccc(OC(F)(F)F)c2)cc1` [Example 43-1, (R)-4-(6-oxo-7-(p-tolyl)-8-(3-(trifluoromethoxy)phenyl)-2-oxa-5,7-diazaspiro[3.4]octan-5-yl)benzonitrile] as the compound, how does the pIC50 read?
Answer: Its pIC50 is 5.00 to 6.00.

Question: How did the pIC50 turn out when `Cc1ccc(N2C(=O)N(c3ccc(C#N)cc3)C3(COC3)[C@@H]2c2cccc(OC(F)(F)F)c2)cc1` [Example 43-2, (S)-4-(6-oxo-7-(p-tolyl)-8-(3-(trifluoromethoxy)phenyl)-2-oxa-5,7-diazaspiro[3.4]octan-5-yl)benzonitrile] was run?
Answer: The pIC50 was over 6.00.

Question: `C[C@@]1(C(F)(F)F)[C@H](c2cccc(OC(F)(F)F)c2)N(c2ccc(Br)cc2)C(=O)N1c1ccc(C#N)cc1` [Example 44-1, 4-((4S,5S)-3-(4-bromophenyl)-5-methyl-2-oxo-4-(3-(trifluoromethoxy)phenyl)-5-(trifluoromethyl)imidazolidin-1-yl)benzonitrile] was tested. Which pIC50 did it give?
Answer: The pIC50 was 5.00 to 6.00.

Question: `C[C@]1(C(F)(F)F)[C@@H](c2cccc(OC(F)(F)F)c2)N(c2ccc(Br)cc2)C(=O)N1c1ccc(C#N)cc1` [Example 44-2, 4-((4R,5R)-3-(4-bromophenyl)-5-methyl-2-oxo-4-(3-(trifluoromethoxy)phenyl)-5-(trifluoromethyl)imidazolidin-1-yl)benzonitrile] was tested. Which pIC50 did it give?
Answer: Its pIC50 is over 6.00.

Question: `N#Cc1ccc(N2C(=O)N(c3ccc(Cl)cc3)[C@H](c3cccc(OC(F)(F)F)c3)C23COC3)cc1` [Example 46-1, (R)-4-(7-(4-chlorophenyl)-6-oxo-8-(3-(trifluoromethoxy)phenyl)-2-oxa-5,7-diazaspiro[3.4]octan-5-yl)benzonitrile] was tested. Which pIC50 did it give?
Answer: Its pIC50 is over 6.00.

Question: With `N#Cc1ccc(N2C(=O)N(c3ccc(Cl)cc3)[C@@H](c3cccc(OC(F)(F)F)c3)C23COC3)cc1` [Example 46-2, (S)-4-(7-(4-chlorophenyl)-6-oxo-8-(3-(trifluoromethoxy)phenyl)-2-oxa-5,7-diazaspiro[3.4]octan-5-yl)benzonitrile] as the compound, how does the pIC50 read?
Answer: The pIC50 was 5.00 to 6.00.

Question: How did the pIC50 turn out when `N#Cc1ccc(N2C(=O)N(c3ccc(Cl)cc3)C3(COC3)[C@H]2c2cccc(OC(F)(F)F)c2)cc1` [Example 47-1, (R)-4-(5-(4-chlorophenyl)-6-oxo-8-(3-(trifluoromethoxy)phenyl)-2-oxa-5,7-diazaspiro[3.4]octan-7-yl)benzonitrile] was run?
Answer: Its pIC50 is 4.52 to 5.00.
